Measured values as given in patent US20120010159A1, “COMBINATION THERAPIES WITH COX-2 INHIBITORS AND TREPROSTINIL” (United Therapeutics Corporation, priority 2010, published 2012).

What was measured:
[1] = administered by subcutaneous infusion; cited from earlier work
[2] = oral administration; cited from earlier work
[3] = bioavailability when delivered to the duodenum; format: in vivo; settings: duodenal delivery
Excerpt: Accordingly, one embodiment of the present invention involves preferential delivery of the desired compound to the duodenum as well as pharmaceutical formulations that achieve duodenal delivery. Duodenal administration can be achieved by any means known in the art. In one of these embodiments, the present compounds can be formulated in an enteric-coated dosage form. Generally, enteric-coated dosage forms are usually coated with a polymer that is not soluble at low pH, but dissolves quickly when exposed to pH conditions of 3 or above. This delivery form takes advantage of the difference in pH between the stomach, which is about 1 to 2, and the duodenum, where the pH tends to be greater than 4.

bioavailability when delivered to the duodenum [3] | SMILES | absolute bioavailability [1] | absolute oral bioavailability [2]
 | CCCCC[C@H](O)CC[C@@H]1[C@H]2Cc3cccc(OCC(=O)O)c3C[C@H]2C[C@H]1O [treprostinil sodium] | ~100% | 
increased bioavailability | CCCCC[C@H](O)CC[C@@H]1[C@H]2Cc3cccc(OCC(=O)O)c3C[C@H]2C[C@H]1O [treprostinil] |  | ~10%
